Results on 6 compounds are retold here after PubChem BioAssay AID1259407 (Chemical Carcinogenesis Research Information System (CCRIS), 2018).

Each structure is given as a SMILES string. Active and inactive are the calls of the source. The rule behind the calls is not given here.

This data set deals with CCRIS mutagenicity, Ames/micronucleus/aberration tests. Briefly: CCRIS mutagenicity studies.
[1] abbreviates: Test System: AMES SALMONELLA TYPHIMURIUM, Strain/Indicator: TA98, Metabolic Activation: NONE, Method: STANDARD PLATE.
Where [2] appears, read: Test System: AMES SALMONELLA TYPHIMURIUM, Strain/Indicator: TA100, Metabolic Activation: NONE, Method: STANDARD PLATE.
Where [3] appears, read: Test System: AMES SALMONELLA TYPHIMURIUM, Strain/Indicator: TA98, Metabolic Activation: RAT, LIVER, S-9, AROCLOR 1254, Method: STANDARD PLATE.
The mark [4] stands for this setting: Test System: AMES SALMONELLA TYPHIMURIUM, Strain/Indicator: TA100, Metabolic Activation: RAT, LIVER, S-9, AROCLOR 1254, Method: STANDARD PLATE.
[5] abbreviates: Test System: AMES SALMONELLA TYPHIMURIUM, Strain/Indicator: TA1535, Metabolic Activation: NONE, Method: STANDARD PLATE.
Setting [6] is: Test System: AMES SALMONELLA TYPHIMURIUM, Strain/Indicator: TA1535, Metabolic Activation: RAT, LIVER, S-9, AROCLOR 1254, Method: STANDARD PLATE.

For the compound `CNC(=O)ON`, the mutagenic call by setting is: under setting [1], “active; positive”; (Test System: AMES SALMONELLA TYPHIMURIUM, Strain/Indicator: TA98, Metabolic Activation: RAT, LIVER, S-9, Method: STANDARD PLATE) “active; positive”; under setting [2], “active; positive”.
In the case of `CNc1ccc(Cl)cc1`, the mutagenic call (Test System: UDS RODENT HEPATOCYTES, Strain/Indicator: THY INCORP (NON-S-PHASE), Metabolic Activation: NONE, Method: AUTORADIOGRAPHY) was “active; positive”.
Take `OCC(CO)(CBr)CBr`: the mutagenic call is “inactive; negative” (End Point: IN VITRO CHROMOSOMAL ABERRATIONS, Test System: CHINESE HAMSTER OVARY CELLS, Metabolic Activation: NONE); “active; positive” (End Point: IN VITRO CHROMOSOMAL ABERRATIONS, Test System: CHINESE HAMSTER OVARY CELLS, Metabolic Activation: RAT, LIVER, S-9, AROCLOR 1254); “inactive; negative” (Test System: AMES SALMONELLA TYPHIMURIUM, Strain/Indicator: TA98, Metabolic Activation: HAMSTER, LIVER, S-9, AROCLOR 1254 (10%), Method: PREINCUBATION); “inactive; negative” (Test System: AMES SALMONELLA TYPHIMURIUM, Strain/Indicator: TA98, Metabolic Activation: HAMSTER, LIVER, S-9, AROCLOR 1254 (30%), Method: PREINCUBATION); “inactive; negative” (Test System: AMES SALMONELLA TYPHIMURIUM, Strain/Indicator: TA98, Metabolic Activation: NONE, Method: PREINCUBATION); “inactive; negative” (Test System: AMES SALMONELLA TYPHIMURIUM, Strain/Indicator: TA98, Metabolic Activation: RAT, LIVER, S-9, AROCLOR 1254 (10%), Method: PREINCUBATION). For the same compound, the mutagenic call was “inactive; negative” (Test System: AMES SALMONELLA TYPHIMURIUM, Strain/Indicator: TA98, Metabolic Activation: RAT, LIVER, S-9, AROCLOR 1254 (30%), Method: PREINCUBATION); “inactive; negative” (Test System: AMES SALMONELLA TYPHIMURIUM, Strain/Indicator: TA100, Metabolic Activation: HAMSTER, LIVER, S-9, AROCLOR 1254 (10%), Method: PREINCUBATION); “active; positive” (Test System: AMES SALMONELLA TYPHIMURIUM, Strain/Indicator: TA100, Metabolic Activation: HAMSTER, LIVER, S-9, AROCLOR 1254 (30%), Method: PREINCUBATION); “inactive; negative” (Test System: AMES SALMONELLA TYPHIMURIUM, Strain/Indicator: TA100, Metabolic Activation: NONE, Method: PREINCUBATION); “inactive; negative” (Test System: AMES SALMONELLA TYPHIMURIUM, Strain/Indicator: TA100, Metabolic Activation: RAT, LIVER, S-9, AROCLOR 1254 (10%), Method: PREINCUBATION); “inactive; negative” (Test System: AMES SALMONELLA TYPHIMURIUM, Strain/Indicator: TA100, Metabolic Activation: RAT, LIVER, S-9, AROCLOR 1254 (30%), Method: PREINCUBATION). Besides, the mutagenic call (Test System: AMES SALMONELLA TYPHIMURIUM, Strain/Indicator: TA1535, Metabolic Activation: HAMSTER, LIVER, S-9, AROCLOR 1254 (10%), Method: PREINCUBATION) was “inactive; negative”; the mutagenic call (Test System: AMES SALMONELLA TYPHIMURIUM, Strain/Indicator: TA1535, Metabolic Activation: NONE, Method: PREINCUBATION) is “inactive; negative”; the mutagenic call (Test System: AMES SALMONELLA TYPHIMURIUM, Strain/Indicator: TA1535, Metabolic Activation: RAT, LIVER, S-9, AROCLOR 1254 (10%), Method: PREINCUBATION) is “inactive; negative”; the mutagenic call (Test System: AMES SALMONELLA TYPHIMURIUM, Strain/Indicator: TA1537, Metabolic Activation: HAMSTER, LIVER, S-9, AROCLOR 1254 (10%), Method: PREINCUBATION) is “inactive; negative”; the mutagenic call (Test System: AMES SALMONELLA TYPHIMURIUM, Strain/Indicator: TA1537, Metabolic Activation: NONE, Method: PREINCUBATION) is “inactive; negative”; the mutagenic call (Test System: AMES SALMONELLA TYPHIMURIUM, Strain/Indicator: TA1537, Metabolic Activation: RAT, LIVER, S-9, AROCLOR 1254 (10%), Method: PREINCUBATION) was “inactive; negative”.
For `CCOC(=O)C(Cl)C(C)=O` (centres undefined), the mutagenic call (Test System: AMES SALMONELLA TYPHIMURIUM, Strain/Indicator: TA98, Metabolic Activation: HAMSTER, LIVER, S-9, AROCLOR 1254, Method: STANDARD PLATE) was “inactive; negative”; the mutagenic call under setting [1] was “inactive; negative”; the mutagenic call under setting [3] was “inactive; negative”; the mutagenic call (Test System: AMES SALMONELLA TYPHIMURIUM, Strain/Indicator: TA100, Metabolic Activation: HAMSTER, LIVER, S-9, AROCLOR 1254, Method: STANDARD PLATE) is “inactive; negative”; the mutagenic call under setting [2] was “inactive; negative”; the mutagenic call under setting [4] is “inactive; negative”. Further, the mutagenic call reads like this: (Test System: AMES SALMONELLA TYPHIMURIUM, Strain/Indicator: TA1535, Metabolic Activation: HAMSTER, LIVER, S-9, AROCLOR 1254, Method: STANDARD PLATE) “inactive; negative”; under setting [5], “inactive; negative”; under setting [6], “inactive; negative”; (Test System: AMES SALMONELLA TYPHIMURIUM, Strain/Indicator: TA1537, Metabolic Activation: HAMSTER, LIVER, S-9, AROCLOR 1254, Method: STANDARD PLATE) “inactive; negative”; (Test System: AMES SALMONELLA TYPHIMURIUM, Strain/Indicator: TA1537, Metabolic Activation: NONE, Method: STANDARD PLATE) “inactive; negative”; (Test System: AMES SALMONELLA TYPHIMURIUM, Strain/Indicator: TA1537, Metabolic Activation: RAT, LIVER, S-9, AROCLOR 1254, Method: STANDARD PLATE) “inactive; negative”. The mutagenic call is “inactive; negative” (Test System: AMES SALMONELLA TYPHIMURIUM, Strain/Indicator: TA1538, Metabolic Activation: HAMSTER, LIVER, S-9, AROCLOR 1254, Method: STANDARD PLATE); “inactive; negative” (Test System: AMES SALMONELLA TYPHIMURIUM, Strain/Indicator: TA1538, Metabolic Activation: NONE, Method: STANDARD PLATE); “inactive; negative” (Test System: AMES SALMONELLA TYPHIMURIUM, Strain/Indicator: TA1538, Metabolic Activation: RAT, LIVER, S-9, AROCLOR 1254, Method: STANDARD PLATE); “inactive; positive. reevaluation of results: negative” (Test System: MOUSE LYMPHOMA, Strain/Indicator: L5178Y (TK+/TK-), Metabolic Activation: NONE, Method: SUSPENSION/PLATE); “active; positive. reevaluation of results: inconclusive” (Test System: MOUSE LYMPHOMA, Strain/Indicator: L5178Y (TK+/TK-), Metabolic Activation: RAT, LIVER, S-9, AROCLOR 1254, Method: SUSPENSION/PLATE).
For `OCC1=CCN2CC[C@@H](O)[C@@H]12`, the mutagenic call is “inactive; negative” (Test System: AMES SALMONELLA TYPHIMURIUM, Strain/Indicator: TA100, Metabolic Activation: HAMSTER, LIVER, S-9, PCB, Method: PREINCUBATION); “inactive; negative” (Test System: AMES SALMONELLA TYPHIMURIUM, Strain/Indicator: TA100, Metabolic Activation: RAT, LIVER, S-9, PCB, Method: PREINCUBATION); “inactive; negative” (Test System: UDS HAMSTER HEPATOCYTES, Strain/Indicator: THY INCORP, Metabolic Activation: NONE, Method: AUTORADIOGRAPHY); “inactive; negative” (Test System: UDS MOUSE HEPATOCYTES, Strain/Indicator: THY INCORP, Metabolic Activation: NONE, Method: AUTORADIOGRAPHY); “inactive; negative” (Test System: UDS RAT HEPATOCYTES, Strain/Indicator: THY INCORP, Metabolic Activation: NONE, Method: AUTORADIOGRAPHY).
On to `ClCCCCl`, for which the mutagenic call reads like this: (Test System: AMES SALMONELLA TYPHIMURIUM, Strain/Indicator: GSTT1, Metabolic Activation: RAT, LIVER, S-9, AROCLOR 1254, Method: STANDARD PLATE) “inactive; negative”; (Test System: AMES SALMONELLA TYPHIMURIUM, Strain/Indicator: RSJ100, Metabolic Activation: NONE, Method: STANDARD PLATE) “inactive; negative”; under setting [1], “inactive; negative”; under setting [3], “inactive; negative”; under setting [2], “inactive; negative”; under setting [4], “inactive; negative”. Besides, the mutagenic call was “inactive; negative” (Test System: AMES SALMONELLA TYPHIMURIUM, Strain/Indicator: TA104, Metabolic Activation: NONE, Method: STANDARD PLATE); “inactive; negative” (Test System: AMES SALMONELLA TYPHIMURIUM, Strain/Indicator: TA104, Metabolic Activation: RAT, LIVER, S-9, AROCLOR 1254, Method: STANDARD PLATE); “inactive; negative” under setting [5]; “inactive; negative” under setting [6].
